# Measured values: patent US20160257651A1, “NOVEL COMPOUND WITH ANTIBACTERIAL ACTIVITY” (priority 2013, published 2016)
# Like-named read-outs stand apart in the source and are kept apart here.
# Columns and labels:
# [1] = test system: S. aureus FDA209P (ATCC 6538P); experiment: microbe, parasite or virus in culture; type: cell-based, Staphylococcus aureus; settings: quinolone-susceptible MSSA, ParC 80S, GyrA 84S
# Protocol: (§1) Then, the cell suspension was diluted 500 times with CAMHB mentioned above.
# [2] = test system: S. aureus Mu50; experiment: microbe, parasite or virus in culture; type: cell-based, Staphylococcus aureus; settings: for MIC ratio (Mu50 MIC/FDA209P MIC): MIC for S. aureus Mu50 / MIC for S. aureus FDA209P; for MIC: S. aureus Mu50, quinolone-resistant MRSA, ParC S80F, GyrA S84L
# Protocol: as §1
# [3] = test system: E. coli strain 1708; experiment: Antibacterial activity against Escherichia coli
# From the text: (§6) The numerical values in the tables indicate MIC (mg/L), Res means resistant bacterium, and Sus means susceptible bacterium.
# (§7) Antibacterial activities against Escherichia coli of the compounds shown Table 19 were examined by the following method.
# (§8) After completion of the culture, the cells were suspended in fresh TBS to prepare a cell suspension showing an absorbance of 0.3 at 578 nm.
# [4] = test system: E. coli strain 1709; experiment: Antibacterial activity against Escherichia coli
# From the text: as §6, §7, §8
# [5] = test system: S. pneumoniae BCLSP37; experiment: MIC against pneumococcus, CAMHB with 5 mass % LHB; type: cell-based, Streptococcus pneumoniae; settings: Streptococcus pneumoniae, BCLSP37, S. pneumoniae BCLSP37, PSSP, quinolone-resistant; ParC 79Phe, GyrA 85Lys; read-out: MIC
# Protocol: (§2) The S. pneumoniae strains used for this test belong to any one of the categories of penicillin-susceptible pneumococcus (penicillin-susceptible Streptococcus pneumoniae, PSSP), penicillin-intermediate pneumococcus (penicillin-intermediate Streptococcus pneumoniae, PISP), and penicillin-resistant pneumococcus (penicillin-resistant Streptococcus pneumoniae, PRSP).
# (§3) The lysed horse blood was prepared by adding sterilized water to horse sterile defibered blood (produced by Nippon Bio-Supp. Center) at a ratio of 1:1, subjecting the mixture to freezing and thawing 5 times, then centrifuging the mixture twice at 10,000 rpm for 20 minutes, and filtering the supernatant through a filter.
# (§4) The S. pneumoniae strains mentioned in Table 11 were each cultured overnight at 37° C. on a blood agar medium as stationary culture. The blood agar medium was prepared by adding 5 mass % ovine sterile defibered blood (produced by Nippon Bio-Supp. Center) to a heart infusion agar medium (produced by EIKEN CHEMICAL). Each S. pneumoniae strain cultured overnight at 37° C. as stationary culture was further subcultured overnight at 37° C. on fresh blood agar medium as stationary culture. After completion of the culture, cells of each pneumococcus strain were collected with a swab, and suspended in physiological saline, and the suspension was adjusted with physiological saline to show absorbance of 0.08 to 0.13 at 625 nm as measured with an absorbance meter (produced by Amersham), and further diluted 200 times with CAMHB containing 5 mass % LHB.
# (§5) In Table 11, the amino acid substitution mutations in QRDR of the strains are underlined.
# [6] = test system: S. pneumoniae KBSP11; experiment: MIC against pneumococcus, CAMHB with 5 mass % LHB; type: cell-based, Streptococcus pneumoniae; settings: Streptococcus pneumoniae, PRSP
# Protocol: as §2, §3, §4, §5
# [7] = Staphylococcus aureus, ATCC 6538P / FDA209P / MSSA, read-out: MIC
molecule,measurement,setting,value
"O=c1cc(CO)c2ccc(-c3ccc(O)cc3)cc2n1C1CC1 [J-121Cp, 1-cyclopropyl-4-hydroxymethyl-7-(4-hydroxy-phenyl)-1H-quinolin-2-one]",MIC,[1]; [7],1 µg/mL
same,MIC ratio (Mu50 MIC/FDA209P MIC),[2],0.5
same,MIC,"[2]; Staphylococcus aureus, MRSA",0.5 µg/mL
"O=c1cc(CO)c2ccc(-c3ccc(O)cc3)c3c2n1CO3 [J-2.1.2, 6-(hydroxymethyl)-9-(4-hydroxyphenyl)oxazolo[5,4,3-ij]quinolin-4(2H)-one]",MIC,[1]; [7],128 µg/mL
same,MIC ratio (Mu50 MIC/FDA209P MIC),[2],0.125
same,MIC,"[2]; Staphylococcus aureus, MRSA",16 µg/mL
"CN1CCN(c2cc3c(cc2F)c(CO)cc(=O)n3C2CC2)CC1 [J-146, 1-cyclopropyl-6-fluoro-4-(hydroxymethyl)-7-(4-methylpiperazin-1-yl)quinolin-2(1H)-one]",MIC,[1]; [7],16 µg/mL
same,MIC ratio (Mu50 MIC/FDA209P MIC),[2],1
same,MIC,"[2]; Staphylococcus aureus, MRSA",16 µg/mL
O=C(O)c1c(CO)c2cc(F)c(-c3ccc(O)cc3)cc2n(C2CC2)c1=O [J-169],MIC,[1]; [7],8 µg/mL
same,MIC,"[2]; Staphylococcus aureus, MRSA",8 µg/mL
same,MIC,[3],128 µg/mL
same,MIC,[4],16 µg/mL
O=c1cc(CO)c2cc(Cl)c(-c3ccc(O)cc3)cc2n1C1CC1 [J-152],MIC,[1]; [7],1 µg/mL
same,MIC,"[2]; Staphylococcus aureus, MRSA",0.25 µg/mL
same,MIC,[3],128 µg/mL
same,MIC,[4],128 µg/mL
"COc1c(-c2ccc(O)cc2)ccc2c(CO)cc(=O)n(C3CC3)c12 [J-157, 1-cyclopropyl-8-methoxyl-4-(hydroxymethyl)-7-(4-hydroxyphenyl)hydroquinolin-2-one]",MIC,[1],4 µg/mL
same,MIC ratio (Mu50 MIC/FDA209P MIC),[2],0.5
same,MIC,[2],2 µg/mL
"CCn1c(=O)cc(CO)c2cc(F)c(-c3ccc(O)cc3)cc21 [J-131E, 1-ethyl-6-fluoro-4-(hydroxymethyl)-7-(4-hydroxyphenyl)hydroquinolin-2-one]",MIC,[1],2 µg/mL
same,MIC ratio (Mu50 MIC/FDA209P MIC),[2],0.25
same,MIC,[2],0.5 µg/mL
COCc1cc(=O)n(C2CC2)c2cc(-c3ccc(O)cc3)c(F)cc12 [J-175],MIC,[1]; [7],1 µg/mL
same,MIC,"[2]; Staphylococcus aureus, MRSA",0.5 µg/mL
same,MIC,[5],8 µg/mL
same,MIC,[6],32 µg/mL
same,MIC,[3],128 µg/mL
same,MIC,[4],128 µg/mL
"Cn1c(=O)cc(CO)c2ccc3c(c21)OCO3 [J-103, 6-(hydroxymethyl)-9-methyl-9-hydro-2H-1,3-dioxoleno[4,5-h]quinolin-8-one]",MIC,[1],128 µg/mL
same,MIC ratio (Mu50 MIC/FDA209P MIC),[2],0.125
same,MIC,[2],16 µg/mL
"CCc1cc(=O)n(C2CC2)c2cc(-c3ccc(O)cc3)c(F)cc12 [J-150, 1-cyclopropyl-4-ethyl-6-fluoro-7-(4-hydroxyphenyl)hydroquinolin-2-one]",MIC,[1],4 µg/mL
same,MIC ratio (Mu50 MIC/FDA209P MIC),[2],0.0625
same,MIC,[2],0.25 µg/mL
"Nc1ccc(-c2cc3c(cc2F)c(COC(=O)CCC(=O)O)cc(=O)n3C2CC2)cc1 [J-136, 3-({[7-(4-aminophenyl)-1-cyclopropyl-6-fluoro-2-oxo-4-hydroquinolyl]methyl}oxycarbonyl)propanoic acid]",MIC,[1],32 µg/mL
same,MIC ratio (Mu50 MIC/FDA209P MIC),[2],0.25
same,MIC,[2],8 µg/mL
CNc1ncc(-c2ccc3c(CO)cc(=O)n(C4CC4)c3c2)cc1C [J-165],MIC,[1]; [7],4 µg/mL
same,MIC,"[2]; Staphylococcus aureus, MRSA",8 µg/mL
same,MIC,[3],128 µg/mL
same,MIC,[4],128 µg/mL
Nc1c(CO)c2cc(F)c(-c3ccc(O)cc3)cc2n(C2CC2)c1=O [J-179],MIC,[1]; [7],0.5 µg/mL
same,MIC,"[2]; Staphylococcus aureus, MRSA",1 µg/mL
same,MIC,[3],128 µg/mL
same,MIC,[4],128 µg/mL
"CCC(=O)OCc1cc(=O)n(C2CC2)c2cc(-c3ccc(N)cc3)c(F)cc12 [J-138, [7-(4-aminophenyl)-1-cyclopropyl-6-fluoro-2-oxo-4-hydroquinolyl]methyl propanoate]",MIC,[1],2 µg/mL
same,MIC ratio (Mu50 MIC/FDA209P MIC),[2],1
same,MIC,[2],2 µg/mL
Cc1cc(=O)n(C)c2cc(-c3ccc(O)cc3)ccc12 [J-121Me],MIC,[1]; [7],128 µg/mL
same,MIC ratio (Mu50 MIC/FDA209P MIC),[2],0.0313
same,MIC,"[2]; Staphylococcus aureus, MRSA",4 µg/mL
"9-(hydroxyphenyl)-6-methyloxazolo[5,4,3-ij]quinolin-4(2H)-one [J-2.1.1]",MIC,[1],32 µg/mL
same,MIC ratio (Mu50 MIC/FDA209P MIC),[2],0.5
same,MIC,[2],16 µg/mL
"CC(=O)OCc1cc(=O)n(C2CC2)c2cc(-c3ccc(O)cc3)c(F)cc12 [J-131ACp, [1-cyclopropyl-6-fluoro-7-(4-hydroxyphenyl)-2-oxo-4-hydroquinolyl]methyl.acetate]",MIC,[1]; [7],64 µg/mL
same,MIC ratio (Mu50 MIC/FDA209P MIC),[2],0.0625
same,MIC,"[2]; Staphylococcus aureus, MRSA",4 µg/mL
same,MIC,[3],128 µg/mL
same,MIC,[4],128 µg/mL
"Cn1c(=O)cc(CO)c2cc(F)c(-c3ccc(O)cc3)cc21 [J-131, 6-fluoro-4-(hydroxymethyl)-7-(4-hydroxyphenyl)-1-methylhydroquinolin-2-one]",MIC,[1],16 µg/mL
same,MIC ratio (Mu50 MIC/FDA209P MIC),[2],0.25
same,MIC,[2],4 µg/mL
"Cc1cc2c(CO)cc(=O)n(C3CC3)c2cc1-c1ccc(O)cc1 [J-140, 1-cyclopropyl-4-(hydroxymethyl)-7-(4-hydroxyphenyl)-6-methylhydroquinolin-2-one]",MIC,[1],1 µg/mL
same,MIC ratio (Mu50 MIC/FDA209P MIC),[2],0.25
same,MIC,[2],0.25 µg/mL
O=c1cc(O)c2ccc(-c3ccc(O)cc3)c(OC(F)F)c2n1C1CC1 [J-158],MIC,[1]; [7],8 µg/mL
same,MIC,"[2]; Staphylococcus aureus, MRSA",4 µg/mL
same,MIC,[3],128 µg/mL
same,MIC,[4],128 µg/mL
"Cn1c(=O)cc(CO)c2cc(F)c(-c3ccc(N)cc3)cc21 [J-132, 7-(4-aminophenyl)-6-fluoro-4-(hydroxymethyl)-1-methylhydroquinolin-2-one]",MIC,[1],128 µg/mL
same,MIC ratio (Mu50 MIC/FDA209P MIC),[2],0.0625
same,MIC,[2],8 µg/mL
"CC(=O)N1COc2c1ccc1c(CO)cc(=O)n(C)c21 [J-125a, 3-acetyl-6-(hydroxymethyl)-9-methyl-8-oxo 9-hydro-2H-1,3-oxazolino[4,5-h]quinoline]",MIC,[1],128 µg/mL
same,MIC ratio (Mu50 MIC/FDA209P MIC),[2],0.125
same,MIC,[2],16 µg/mL
"O=c1cc(CO)c2cc(F)c(N3CCC(O)CC3)cc2n1C1CC1 [J-147, 1-cyclopropyl-6-fluoro-4-(hydroxymethyl)-7-(4-hydroxypiperidin-1-yl)quinolin-2(1H)-one]",MIC,[1]; [7],32 µg/mL
same,MIC ratio (Mu50 MIC/FDA209P MIC),[2],0.5
same,MIC,"[2]; Staphylococcus aureus, MRSA",16 µg/mL
NC(=O)c1cc(=O)n(C2CC2)c2cc(-c3ccc(O)cc3)c(F)cc12 [J-173],MIC,[1]; [7],8 µg/mL
same,MIC,"[2]; Staphylococcus aureus, MRSA",2 µg/mL
same,MIC,[5],8 µg/mL
same,MIC,[6],8 µg/mL
same,MIC,[3],128 µg/mL
same,MIC,[4],128 µg/mL
"Nc1ccc(-c2cc3c(cc2F)c(COC(=O)CC(=O)O)cc(=O)n3C2CC2)cc1 [J-135, 2-({[7-(4-aminophenyl)-1-cyclopropyl-6-fluoro-2-oxo-4-hydroquinolyl]methyl}oxycarbonyl)acetic acid]",MIC,[1],8 µg/mL
same,MIC ratio (Mu50 MIC/FDA209P MIC),[2],1
same,MIC,[2],8 µg/mL
Cc1cc(=O)n2c3c(c(-c4ccc(O)cc4)c(F)cc13)OCC2C (stereo not drawn) [J-149d],MIC,[1]; [7],1 µg/mL
same,MIC,"[2]; Staphylococcus aureus, MRSA",0.5 µg/mL
same,MIC,[3],128 µg/mL
same,MIC,[4],128 µg/mL
C[C@H]1COc2c(-c3ccc(O)cc3)c(F)cc3c(CO)cc(=O)n1c23 [J-149A],MIC,[1]; [7],0.25 µg/mL
same,MIC,"[2]; Staphylococcus aureus, MRSA",0.5 µg/mL
same,MIC,[3],128 µg/mL
same,MIC,[4],16 µg/mL
